Experimental data from ChEMBL document CHEMBL1697781, “Assessment of the health effects of chemicals in humans: II. Construction of an adverse effects database for QSAR modeling” (Curr Drug Discov Technol, 2004).

Key:
Conditions in all cases: human; call rule not given here
[1] = test system: Hepatotoxicity; assay: FDA HLAED, gamma-glutamyl transferase (GGT) increase
[2] = test system: Hepatotoxicity; assay: FDA HLAED, serum glutamic oxaloacetic transaminase (SGOT) increase
[3] = test system: Hepatotoxicity; assay: FDA HLAED, lactate dehydrogenase (LDH) increase
[4] = test system: Hepatotoxicity; assay: FDA HLAED, liver enzyme composite activity
[5] = test system: Hepatotoxicity; assay: FDA HLAED, alkaline phosphatase increase
[6] = test system: Hepatotoxicity; assay: FDA HLAED, serum glutamic pyruvic transaminase (SGPT) increase
For GGT Increase - Index Value in this document: reference of the scale not given here.
For LDH Increase - Index Value in this document: reference of the scale not given here.

Row | SMILES | GGT Increase - Activity Score [1] | GGT Increase - Index Value [1] | GGT Increase - Number of Reports [1] | SGOT Increase - Activity Score [2] | SGOT Increase - Index Value [2] | SGOT Increase - Number of Reports [2] | LDH Increase - Activity Score [3] | LDH Increase - Index Value [3] | LDH Increase - Number of Reports [3] | Composite Activity - Active [4] | Composite Activity - Marginal [4] | Composite Activity - Score [4] | Alkaline Phosphatase Increase - Activity Score [5] | Alkaline Phosphatase Increase - Index Value [5] | Alkaline Phosphatase Increase - Number of Reports [5] | SGPT Increase - Activity Score [6] | SGPT Increase - Index Value [6] | SGPT Increase - Number of Reports [6] | further results
1 | Oc1ccc2c3c1O[C@H]1[C@@H](O)CC[C@@]4(O)[C@@H](C2)N(CC2CCC2)CC[C@]314 [NALBUPHINE] | Inactive | 0 | < 4 | Inactive | 0 | < 4 | Inactive | 0 | < 4 | 0 | 0 | Inactive | Inactive | 0 | < 4 | Inactive | 0 | < 4 | –
2 | O=C1CC[C@@]2(O)[C@H]3Cc4ccc(O)c5c4[C@@]2(CCN3CC2CC2)[C@H]1O5 [NALTREXONE] | Inactive | 0 | < 4 | Inactive | 0 | < 4 | Inactive | 0 | < 4 | 0 | 0 | Inactive | Inactive | 0 | < 4 | Inactive | 23.3 | < 4 | –
3 | COc1ccc2cc([C@H](C)C(=O)O)ccc2c1 [NAPROXEN] | Inactive | 0.1 | < 4 | Inactive | 0.1 | >= 4 | Inactive | 0 | < 4 | – | – | – | Inactive | 0.1 | < 4 | Inactive | 0 | < 4 | Composite Activity - Active ([4]; Liver): 0; Composite Activity - Marginal ([4]; Liver): 0; Composite Activity - Score ([4]; Liver): Inactive
4 | CCCc1c2oc(C(=O)O)cc(=O)c2cc2c(=O)cc(C(=O)O)n(CC)c12 [NEDOCROMIL] | Inactive | 0 | < 4 | Inactive | 0.5 | < 4 | Inactive | 0.3 | < 4 | 0 | 0 | Inactive | Inactive | 0 | < 4 | Inactive | 0.3 | < 4 | –
5 | CCc1nn(CCCN2CCN(c3cccc(Cl)c3)CC2)c(=O)n1CCOc1ccccc1 [NEFAZODONE] | Inactive | 1.1 | >= 4 | Marginally Active | 3.6 | >= 4 | Inactive | 1.1 | >= 4 | 0 | 2 | Inactive | Inactive | 1.1 | >= 4 | Marginally Active | 3.3 | >= 4 | –
6 | CCN[C@@H]1C[C@H](N)[C@@H](O[C@H]2OC(CN)=CC[C@H]2N)[C@H](O)[C@H]1O[C@H]1OC[C@](C)(O)[C@H](NC)[C@H]1O [NETILMICIN] | Inactive | 0 | < 4 | Inactive | 0 | < 4 | Inactive | 0 | < 4 | 0 | 0 | Inactive | Inactive | 0 | < 4 | Inactive | 0 | < 4 | –
7 | Cc1ccnc2c1NC(=O)c1cccnc1N2C1CC1 [NEVIRAPINE] | Active | 41.2 | >= 4 | Active | 68.7 | >= 4 | Active | 34.4 | >= 4 | 5 | 0 | Active | Active | 27.5 | >= 4 | Active | 55 | >= 4 | –
8 | COC(=O)C1=C(C)NC(C)=C(C(=O)OCCN(C)Cc2ccccc2)C1c1cccc([N+](=O)[O-])c1 (stereo unspecified) [NICARDIPINE] | Inactive | 0.4 | < 4 | Marginally Active | 3 | >= 4 | Inactive | 0.9 | >= 4 | 0 | 1 | Inactive | Inactive | 2 | >= 4 | Inactive | 2.5 | >= 4 | –
9 | CN1CCC[C@H]1c1cccnc1 [NICOTINE] | Inactive | 0.3 | < 4 | Inactive | 0.6 | < 4 | Inactive | 0.9 | < 4 | – | – | – | Inactive | 0 | < 4 | Inactive | 0.6 | < 4 | Composite Activity - Active ([4]; Liver): 0; Composite Activity - Marginal ([4]; Liver): 0; Composite Activity - Score ([4]; Liver): Inactive
10 | COC(=O)C1=C(C)NC(C)=C(C(=O)OC)C1c1ccccc1[N+](=O)[O-] [NIFEDIPINE] | Inactive | 0 | < 4 | Inactive | 0.6 | >= 4 | Inactive | 0.1 | < 4 | 0 | 0 | Inactive | Inactive | 0.3 | < 4 | Inactive | 0.4 | >= 4 | –
11 | CC1(C)NC(=O)N(c2ccc([N+](=O)[O-])c(C(F)(F)F)c2)C1=O [NILUTAMIDE] | Inactive | 0 | < 4 | Inactive | 19.5 | < 4 | Inactive | 0 | < 4 | – | – | – | Inactive | 0 | < 4 | Inactive | 19.5 | < 4 | Composite Activity - Active ([4]; Liver): 0; Composite Activity - Marginal ([4]; Liver): 0; Composite Activity - Score ([4]; Liver): Inactive
12 | COCCOC(=O)C1=C(C)NC(C)=C(C(=O)OC(C)C)C1c1cccc([N+](=O)[O-])c1 (stereo unspecified) [NIMODIPINE] | Active | 17.6 | < 4 | Active | 23.4 | >= 4 | Active | 23.4 | >= 4 | 5 | 0 | Active | Active | 17.6 | < 4 | Active | 29.3 | >= 4 | –
